Results published in patent US9206156B2, “Substituted indole derivatives” (GRÜNENTHAL GMBH, priority 2008, dated 2015).

Assays:
ORL1 receptor = molecular target: T1, ORL1 receptor (Homo sapiens, UniProt P41146); assay: ORL1 receptor binding assay with 3H-nociceptin/orphanin FQ (WGA-SPA beads); details: c=1 μM test substance; 0.5 nM 3H-nociceptin/orphanin FQ; membranes of recombinant CHO-ORL1 cells
T1 construct: expressed in transfected cells; host or cells: CHO (recombinant CHO-ORL1 cells), membranes
Experimental: Measurement of ORL1 Binding
The cyclohexane derivatives having the general formula I were investigated in a receptor binding assay with ^3H-nociceptin/orphanin FQ with membranes of recombinant CHO—ORL1 cells. This test system was conducted in accordance with the method described by Ardati et al. (Mol. Pharmacol., 51, 1997, p. 816-824). The concentration of ^3H-nociceptin/orphanin FQ in these tests was 0.5 nM. The binding assays were carried out with 20 μg amounts of membrane protein per 200 μl batch in 50 mM Hepes, pH 7.4, 10 mM MgCl2 and 1 mM EDTA. The binding to the ORL1 receptor was determined using 1 mg amounts of WGA-SPA beads (Amersham-Pharmacia, Freiburg, Germany), by incubation of the batch for one hour at room temperature and subsequent measurement in a Trilux scintillation counter (Wallac, Finland). The affinity is given in Table 1 as the nanomolar Ki value or in % inhibition at c=1 μM.

human μ-opiate receptor = molecular target: T2, human μ-opiate receptor (Homo sapiens, UniProt P35372); assay: μ-opiate receptor binding assay with [3H] naloxone (WGA-SPA beads); details: 1 μmol/l test substance, 1 nmol/l [3H] naloxone, CHO-K1 cell membranes expressing human μ-opiate receptor
T2 construct: purchased NEN, Zaventem, Belgium RB-HOM; host or cells: CHO-K1 cells (membrane preparation)
Experimental: The receptor affinity to the human μ-opiate receptor was determined in a homogeneous batch in microtitre plates. To this end, dilution series of the substituted indole derivative to be tested were incubated for 90 minutes at room temperature with a receptor membrane preparation (15-40 μg protein per 250 μl incubation batch) of CHO-K1 cells, which express the human μ-opiate receptor (RB—HOM receptor membrane preparation from NEN, Zaventem, Belgium), in the presence of 1 nmol/l of the radioactive ligand [^3H] naloxone (NET719, NEN, Zaventem, Belgium) and 1 mg of WGA-SPA beads (wheat germ agglutinin SPA beads from Amersham/Pharmacia, Freiburg, Germany) in a total volume of 250 μl. 50 mmol/l tris-HCl supplemented with 0.05 wt. % sodium azide and 0.06 wt. % bovine serum albumin were used as the incubation buffer. In order to determine the non-specific binding, 25 μmol/l of naloxone were also added. At the end of the ninety-minute incubation period the microtitre plates were centrifuged for 20 minutes at 1000 g and the radioactivity was measured in a β counter (Microbeta-Trilux, PerkinElmer Wallac, Freiburg, Germany). The percentage displacement of the radioactive ligand from its binding to the human μ-opiate receptor was determined at a test substance concentration of 1 μmol/l and stated as the percentage inhibition (% inhibition) of the specific binding. In some cases the percentage displacement due to differing concentrations of the compounds having the general formula I to be tested was used to calculate the IC50 inhibition concentrations which bring about a 50-percent displacement of the radioactive ligand. Ki values for the test substances were obtained by extrapolation using the Cheng-Prusoff equation.

T1 sequence (P41146 whole entry): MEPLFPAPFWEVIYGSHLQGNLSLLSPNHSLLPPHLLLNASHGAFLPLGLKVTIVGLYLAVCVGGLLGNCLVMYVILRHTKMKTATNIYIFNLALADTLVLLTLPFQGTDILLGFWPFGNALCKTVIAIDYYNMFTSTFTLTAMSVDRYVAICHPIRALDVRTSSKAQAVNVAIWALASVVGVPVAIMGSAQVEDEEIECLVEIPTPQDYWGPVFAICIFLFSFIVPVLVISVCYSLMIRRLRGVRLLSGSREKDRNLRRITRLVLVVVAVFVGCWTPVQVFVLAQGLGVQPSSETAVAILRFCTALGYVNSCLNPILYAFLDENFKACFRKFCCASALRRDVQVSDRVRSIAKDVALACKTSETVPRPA
T2 sequence (P35372 whole entry): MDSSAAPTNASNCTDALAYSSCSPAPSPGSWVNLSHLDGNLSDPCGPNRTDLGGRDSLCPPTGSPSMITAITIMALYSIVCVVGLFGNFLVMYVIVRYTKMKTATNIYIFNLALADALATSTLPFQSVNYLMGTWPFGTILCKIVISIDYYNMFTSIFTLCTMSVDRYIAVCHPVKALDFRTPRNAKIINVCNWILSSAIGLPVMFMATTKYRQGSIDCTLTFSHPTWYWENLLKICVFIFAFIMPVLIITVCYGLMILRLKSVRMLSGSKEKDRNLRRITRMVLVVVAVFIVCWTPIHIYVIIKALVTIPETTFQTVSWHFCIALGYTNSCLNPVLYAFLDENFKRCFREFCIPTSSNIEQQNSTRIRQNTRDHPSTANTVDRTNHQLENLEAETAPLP

Structure (SMILES) | inhibition at 1 µM (ORL1 receptor) [%] | inhibition at 1 µM (human μ-opiate receptor) [%] | % Inhibition (ORL1) at 1 μM (ORL1 receptor) [%] | % Inhibition (μ) at 1 μM (human μ-opiate receptor; 1 µM) [%] | % Inhibition (μ) at 1 μM (human μ-opiate receptor) [%]
CCCCC1(N(C)C)CCN(CCN(C)C(=O)C2CCCc3c2[nH]c2ccc(Cl)cc32)CC1 (stereo not shown) [Example 43, N-(2-(4-Butyl-4-(dimethylamino)piperidin-1-yl)ethyl)-6-chloro-N-methyl-2,3,4,9-tetrahydro-1H-carbazole-1-carboxamide] | 21 | 54 | – | – | –
CC(C)C(CC(=O)N(C)CCCN1CCC(c2ccccc2)(N(C)C)CC1)c1c[nH]c2ccccc12 (stereo not shown) [Example 34, N-(3-(4-(Dimethylamino)-4-phenylpiperidin-1-yl)propyl)-3-(1H-indol-3-yl)-N,4-dimethylpentanamide] | 43 | 88 | – | – | –
CN(CCN1CCC(c2ccccc2)(N(C)C)CC1)C(=O)CCc1c[nH]c2ccccc12 [Example 4, N-(2-(4-(Dimethylamino)-4-phenylpiperidin-1-yl)ethyl)-3-(1H-indol-3-yl)-N-methylpropanamide] | 86 | 93 | – | – | –
CN(C)C1(c2ccccc2)CCN(C(=O)C2CCCN(C(=O)c3c[nH]c4ccccc34)C2)CC1 (stereo not shown) [Example 131, (1-(1H-indole-3-carbonyl)piperidin-3-yl)(4-(dimethylamino)-4-phenylpiperidin-1-yl)methanone] | 34 | 43 | – | – | –
CCCCC1(N(C)C)CCN(CCN(C)C(=O)c2cccc3c2ccn3C)CC1 [Example 41, N-(2-(4-Butyl-4-(dimethylamino)piperidin-1-yl)ethyl)-N,1-dimethyl-1H-indole-4-carboxamide] | 17 | 63 | – | – | –
CN(CCN1CCC(c2ccccc2)(N(C)C)CC1)C(=O)c1ccc2cc[nH]c2c1 [Example 1, N-(2-(4-(Dimethylamino)-4-phenylpiperidin-1-yl)ethyl)-N-methyl-1H-indol-6-amide] | – | – | 80 | 94 | –
CN(C)C1(c2ccccc2)CCN(C(=O)CCNC(=O)c2ccc3cc[nH]c3c2)CC1 [Example 113, N-(3-(4-(dimethylamino)-4-phenylpiperidin-1-yl)-3-oxopropyl)-1H-indole-6-carboxamide] | 57 | 89 | – | – | –
CCCCC1(N(C)C)CCN(CCN(C)Cc2c[nH]c3ccc(Br)cc23)CC1 [Example 154, 1-(2-(((5-bromo-1H-indol-3-yl)methyl)(methyl)amino)ethyl)-4-butyl-N,N-dimethylpiperidin-4-amine] | 28 | 94 | – | – | –
CN(C)C1(c2ccccc2)CCN(C(=O)C2CN(Cc3cccc4[nH]ccc34)c3ccccc32)CC1 (stereo not shown) [Example 175] | – | – | 10 | – | 70
CN(C)C1(c2cccs2)CCN(CCNCc2c[nH]c3ccc(Cl)cc23)CC1 [Example 178, 1-(2-((5-chloro-1H-indol-3-yl)methylamino)ethyl)-N,N-dimethyl-4-(thiophen-2-yl)piperidin-4-amine] | 99 | 100 | – | – | –
CN(C)C1(c2ccccc2)CCN(C(=O)CCNCc2cccc3cc[nH]c23)CC1 [Example 171, 3-((1H-indol-7-yl)methylamino)-1-(4-(dimethylamino)-4-phenylpiperidin-1-yl)propan-1-one] | 73 | 97 | – | – | –
CC(C)C(CC(=O)NC(CC(=O)N1CCC(c2cccs2)(N(C)C)CC1)c1ccccc1)c1c[nH]c2ccccc12 (stereo not shown) [Example 85, N-(3-(4-(dimethylamino)-4-(thiophen-2-yl)piperidin-1-yl)-3-oxo-1-phenylpropyl)-3-(1H-indol-3-yl)-4-methylpentanamide] | 94 | 101 | – | – | –
CN(C)C1(c2ccccc2)CCN(C(=O)C2CCCN(C(=O)c3cccc4c3ccn4C)C2)CC1 (stereo not shown) [Example 130, (4-(dimethylamino)-4-phenylpiperidin-1-yl)(1-(1-methyl-1H-indole-4-carbonyl)piperidin-3-yl) methanone] | 36 | 51 | – | – | –
CN(CCN1CCC(c2ccccc2)(N(C)C)CC1)C(=O)Cc1c[nH]c2cc(F)ccc12 [Example 27, N-(2-(4-(Dimethylamino)-4-phenylpiperidin-1-yl)ethyl)-2-(6-fluoro-1H-indol-3-yl)-N-methylacetamide] | 93 | 98 | – | – | –
CN(C)C1(c2ccccc2)CCN(C(=O)C2CN(Cc3ccc4[nH]ccc4c3)c3ccccc32)CC1 (stereo not shown) [Example 166, (1-((1H-indol-5-yl)methyl)indolin-3-yl)(4-(dimethylamino)-4-phenylpiperidin-1-yl)methanone] | 40 | 77 | – | – | –
CN(C)C1(c2cccs2)CCN(C(=O)CC(NC(=O)c2cccc3c2ccn3C)c2ccccc2)CC1 (stereo not shown) [Example 108, N-(3-(4-(dimethylamino)-4-(thiophen-2-yl)piperidin-1-yl)-3-oxo-1-phenylpropyl)-1-methyl-1H-indole-4-carboxamide] | 63 | 98 | – | – | –
CN(CCCN1CCC(c2ccccc2)(N(C)C)CC1)C(=O)Cc1c[nH]c2cc(F)ccc12 [Example 45, N-(3-(4-(Dimethylamino)-4-phenylpiperidin-1-yl)propyl)-2-(6-fluoro-1H-indol-3-yl)-N-methylacetamide] | 49 | 82 | – | – | –
COc1ccc2c(c1)c(CN(C)CCN1CCC(c3ccccc3)(N(C)C)CC1)c(C)n2Cc1ccccc1 [Example 193, 1-(2-(((1-benzyl-5-methoxy-2-methyl-1H-indol-3-yl)methyl)(methyl)amino)ethyl)-N,N-dimethyl-4-phenylpiperidin-4-amine] | 68 | 82 | – | – | –
CC(C)c1ccc2c(CNCCN3CCC(c4cccs4)(N(C)C)CC3)c[nH]c2c1 [Example 74, 1-(2-((6-Isopropyl-1H-indol-3-yl)methylamino)ethyl)-N,N-dimethyl-4-(thiophen-2-yl)pipendin-4-amine] | 97 | 99 | – | – | –
CN(C)C1(c2cccs2)CCN(C(=O)CC(NCc2c[nH]c3ccc(Br)cc23)c2ccccc2)CC1 (stereo not shown) [Example 163, 3-((5-bromo-1H-indol-3-yl)methylamino)-1-(4-(dimethylamino)-4-(thiophen-2-yl)piperidin-1-yl)-3-phenylpropan-1-one] | 55 | 87 | – | – | –
CN(CCCN1CCC(c2cccs2)(N(C)C)CC1)C(=O)c1c[nH]c2ccccc12 [Example 11, N-(3-(4-(Dimethylamino)-4-(thiophen-2-yl)piperidin-1-yl)propyl)-N-methyl-1H-indole-3-carboxamide] | 80 | 86 | – | – | –
CN(C)C1(c2ccccc2)CCN(C(=O)CCNCc2c[nH]c3ccc(Br)cc23)CC1 [Example 162, 3-((5-bromo-1H-indol-3-yl)methylamino)-1-(4-(dimethylamino)-4-phenylpiperidin-1-yl)propan-1-one] | 63 | 80 | – | – | –
CC(C)C(C(=O)N1CCC(c2ccccc2)(N(C)C)CC1)N(C)C(=O)CCc1c[nH]c2ccccc12 (stereo not shown) [Example 94, N-(1-(4-(dimethylamino)-4-phenylpiperidin-1-yl)-3-methyl-1-oxobutan-2-yl)-3-(1H-indol-3-yl)-N-methylpropanamide] | 82 | 71 | – | – | –
